Series [1] is described as follows: UV absorption and fluorescence emission spectra in methanol. The series is classed as physicochemical. The settings on record: 5 μM in methanol. The protocol: Compounds 1-1 and 1-2 synthesized from embodiment 1 above are added to 3 mL methanol solvent with a final concentration of 5 μM and their UV absorption spectra and fluorescence emission spectra are measured. […] The instruments used are AgIIlent 8453 UV spectrophotometer and AgIIlent Cary EclIIpse fluorescence spectrophotometer.
Benzophenoselenazine photosensitizer 2-1, 2-2, synthesized from embodiment 2 above are added to 3 mL methanol solvent with a final concentration of 5 μM, and their UV absorption spectra and fluorescence emission spectra are measured. […] The instruments used are AgIIlent 8453 UV spectrophotometer and AgIIlent Cary EclIIpse fluorescence spectrophotometer.
Compounds 1-1-IMC and 2-1-IMC synthesized from embodiment 3 above are added to 3 mL methanol solvent with a final concentration of 5 μM. The UV absorption spectra and fluorescence emission spectra are then measured. […] The instruments used are AgIIlent 8453 UV spectrophotometer and AgIIlent Cary EclIIpse fluorescence spectrophotometer.
Compounds 1-1-Biotin synthesized from embodiment 4 above is added to 3 mL methanol solvent with a final concentration of 5 μM, and then the UV absorption spectra and fluorescence emission spectra are detected. […] The instruments used are AgIIlent 8453 UV spectrophotometer and AgIIlent Cary EclIIpse fluorescence spectrophotometer.

Series [2] is described as follows: Singlet oxygen production, DPBF absorption attenuation under 660 nm light, methylene blue as reference. The settings on record: 5 μM in methanol. The series is classed as physicochemical. The protocol:
Compounds 1-1 and 1-2 synthesized in the embodiment 1 are added to 3 mL methanol solvent with a final concentration of 5 μM. Next, 1, 3-diphenyl isobenzofuran (DPBF) is added, and adjusting the absorbance of DPBF in the solution to about 1.0. Then the ultraviolet absorption curve is measured. According to the changes of the absorbance value of DPBF at 411 nm after each irradiation (660 nm light source), the correlation curve between absorbance and time is drawn. With methylene blue (MB) as reference, the singlet oxygen yield is calculated using the following formula.
(§1) Compounds 1-1 and 1-2 synthesized in the above embodiment 2 are added to 3 mL methanol solvent with a final concentration of 5 μM. Then, the 1,3-diphenyl isobenzofuran (DPBF) is added, and the absorbance of DPBF in the solution is adjusted to about 1.0. Then the ultraviolet absorption curve is measured after each 660 nm red light irradiation. According to the changes of the absorbance value of DPBF at 411 nm, the correlation curve between absorbance and time is drawn. With methylene blue (MB) as reference, the following formula is used to calculate the oxygen yield of its singlet state.
[formula] […] The instruments used are AgIIlent 8453 UV spectrophotometer, and the light source is 300 W xenon lamp.
as §1, with “1-1-IMC” for “1-1”, “2-1-IMC” for “1-2”
Compounds 1-1-Biotin synthesized in the above […] are added to 3 mL methanol solvent with a final concentration of 5 μM. Then, the 1,3-diphenyl isobenzofuran (DPBF) is added, and the absorbance of DPBF in the solution is adjusted to about 1.0. Then the ultraviolet absorption curve is measured after each 660 nm red light irradiation. According to the changes of the absorbance value of DPBF at 411 nm, the correlation curve between absorbance and time is drawn. With methylene blue (MB) as reference, the following formula is used to calculate the oxygen yield of its singlet state.

The test system of series [3] is HepG2 cells. Description: In vitro cell selectivity test, confocal fluorescence uptake in co-cultured cells, HepG2. The series is classed as cell-based. The settings on record: 1 μM, 1 h. The protocol: (§2) Firstly, HepG2 cells and COS-7 cells are cultured together in a cell culture dish for 24 h, and then 1 μM of 1-1-biotin or 1-1 is added and further incubation for 1 h. After staining, the cells are washed using serum-free medium for three times. Then, 2 mL fresh medium is added, and corresponding fluorescence observation is performed using the laser confocal scanning microscope. The excitation wavelength is 635 nm and the fluorescence receiving channel is 655 nm-755 nm.

In series [4] the test system is HepG2 (hepatoma cells). Description: In vitro anticancer test (MTT cell viability), dark and 660 nm light, HepG2. The series is classed as cell-based. As to the method:
MCF-7 (human breast) cancer cells or HepG2 (liver cancer cell) are incubated on the cell culture plate in DMEM medium supplemented with 10% FBS and 1% penicillin-streptomycin at 37° C. in a humidified, 5% CO2 atmosphere. Then, the MCF-7 cells are seeded in 96 well cell culture plate at density of 5,000 cells per well. After 24 h incubation, 100 μL of 1-1-Biotin at different concentrations (5, 2.5, 1.25, 0.625, 0.32, 0.16, 0.08, 0.04, 0.02 μM) are added into the each well, and cultured for 1 h. Then, the cell medium is replaced with 200 μL fresh medium. For the phototoxicity test, the 96-well plate is irradiated with 660 nm light source for 10 min and then cultured in the above environment for 12 hours. No light irradiation is used as control. Then 20 μL MTT solution with a concentration of 5 mg/mL is added into each well and incubated in the incubator for another 4 hours. The culture medium is then removed and 200 μL DMSO is added to each well, and the plate is gently shaken for 5 min at room temperature. Finally, the absorbance at 490 nm is measured with a Bio-Rad microplate reader and the cell viability is calculated by the following equation: Cell Viability (%)=[Σ(Ai/Ācontrol×100)]/n
Ai is the absorbance of the ith group of data (I=1, 2 . . . , n), Ācontrol is the average absorbance of the control hole of the drug, and the parallel experiment is more than 3 times.

Series [5] deals with COS-7 (African green monkey kidney cells). Description: In vitro anticancer test (MTT cell viability), dark and 660 nm light, COS-7. The series is classed as cell-based.
Series [6] has as its system COS-7 cells. In words: In vitro cell selectivity test, confocal fluorescence uptake in co-cultured cells, COS-7. The format is cell-based, African green monkey. The settings on record: 1 μM, 1 h, COS-7 co-cultured with HepG2, excitation 635 nm. As to the method: as §2

The values below come from patent publication US11504428B2, “Photosensitizer and derivatives and application thereof” (DALIAN UNIVERSITY OF TECHNOLOGY, priority 2017, dated 2022).

In series [1], `CCN(CC)c1ccc2nc3c4ccccc4/c(=N\CCCCCCN)cc-3[se]c2c1` [2-1] yielded a maximum absorption wavelength of 661 nm and a maximum emission wavelength of 702 nm. The singlet oxygen yield in series [2] was 0.78.

In series [1], `CCN(CC)c1ccc2nc3c4ccccc4/c(=N\CCCCCCNC(=O)Cc4c(C)n(C(=O)c5ccc(Cl)cc5)c5ccc(OC)cc45)cc-3[se]c2c1` [2-1-IMC] had a maximum absorption wavelength of 662 nm and a maximum emission wavelength of 703 nm. The compound also registered a singlet oxygen yield in series [2] of 0.82.

In series [1], `CCN(CC)c1ccc2nc3c4ccccc4/c(=N\CCCCCCN)cc-3sc2c1` [1-1] gave a maximum absorption wavelength of 655 nm and a maximum emission wavelength of 694 nm. This compound registered a singlet oxygen yield in series [2] of 0.04. Also, the “selectivity of uptake for HepG2 over COS-7 cells” value in series [3] (co-culture of HepG2 and COS-7) is on record as “does not have such selectivity”.

In series [1], `CCN(CC)c1ccc2nc3c4ccccc4/c(=N\CCCCCC(=O)O)cc-3[se]c2c1` [2-2] registered a maximum absorption wavelength of 661 nm and a maximum emission wavelength of 702 nm. In series [2], this compound had a singlet oxygen yield of 0.73.

In series [1], `CCN(CC)c1ccc2nc3c4ccccc4/c(=N\CCCCCCNC(=O)Cc4c(C)n(C(=O)c5ccc(Cl)cc5)c5ccc(OC)cc45)cc-3sc2c1` [1-1-IMC] displayed a maximum absorption wavelength of 654 nm and a maximum emission wavelength of 694 nm. For the same compound, the singlet oxygen yield in series [2] amounted to 0.04.

With `CCN(CC)c1ccc2nc3c4ccccc4/c(=N\CCCCCC(=O)O)cc-3sc2c1` [1-2], in series [1], the maximum absorption wavelength is 655 nm and the maximum emission wavelength amounted to 694 nm. In addition, the singlet oxygen yield in series [2] stood at 0.04.

In series [1], `CCN(CC)c1ccc2nc3c4ccccc4/c(=N\CCCCCCNC(=O)CCCCC4SC[C@@H]5NC(=O)N[C@H]45)cc-3sc2c1` (some centres unmarked) [1-1-Biotin] yielded a maximum absorption wavelength of 652 nm and a maximum emission wavelength of 681 nm. This compound had a singlet oxygen yield in series [2] of 0.04. The “killing effect on biotin receptor overexpressing HepG2 cells relative to COS-7 cells” value in series [4] (660 nm light, HepG2 vs COS-7 with low biotin receptor expression) is recorded as “significantly higher”. Moreover, the “phototoxicity (cell killing)” value in series [4] (HepG2, 10 minutes irradiation with 660 nm LED light source, MTT) is “significant HepG2 cells arr killed”. Further, the “dark toxicity (cell survival rate)” value in series [4] (HepG2, no light irradiation, MTT) is listed as “low dark toxicity”. In series [5] (COS-7, 10 minutes irradiation with 660 nm LED light source), the “phototoxicity (cytotoxicity)” value is recorded as “only limited cytotoxicity”. Also, the “dark toxicity (cell survival rate)” value in series [5] (COS-7, no light irradiation) was “low dark toxicity”. In series [3] (HepG2 co-cultured with COS-7, excitation 635 nm), the “cell uptake / targeting (red fluorescence)” value was “can specifically target HepG2 cells”. For the same compound, the “cell uptake (red fluorescence)” value in series [6] was “very limited”.
